Like-named read-outs stand apart in the source and are kept apart here.
What was measured:
[1] = tested on: bone marrow cells; settings: 40 mg/kgbw; for Total Aberrations (Mean ± SD): mean percentage; for MI (Mean ± SD): mitotic index mean percentage; for Structural Aberrations Assoc: number of associations; for Structural Aberrations Brk: number of breaks; for Structural Aberrations Del: number of deletions; for Structural Aberrations Dcn: number of dicentrics; for Structural Aberrations Frag: number of fragments; for Structural Aberrations Gp: number of gaps; for Structural Aberrations Ring: number of rings
Description: (§1) The experimental animals—Rattus norvegicus (Wistar strain; 8–10 weeks old; 120 ± 20 gm; males only) were acquired from Indian Institute of Integrative Medicine (IIIM-CSIR) (Jammu, India), quarantined, acclimatized and sacrificed as per standard practice conforming to the University Ethical Regulations. After acclimatization, rats were divided into five groups by stratified randomization with five animals per group. […] Distilled water was used to prepare dosing solutions of test agent and injected via intraperitoneal (i.p.) injection. At 24, 48 and 72 h post-dosing, 5 rats per duration were sacrificed and necessary tissues were isolated for different cytogenetic and molecular parameters. For CA assessment, separate experimental lot was used due to colchicine treatment.
Method of Preston et al. was used for preparing the metaphase chromosomes. An aqueous solution of Colchicine (4 mg/kgbw) was injected intraperitoneally 2 h prior to sacrificing the animal. Pre-warm KCL (0.075 M) solution was used to collect the bone marrow cells followed by incubation at 37 °C for 20 min, and then centrifuge at 1000 rpm for 10 min. After fixing the pellet in cold Cornoy’s fixative dropped onto clean pre-chilled glass slide in 30% ethanol and dried in air. 5% buffered Giemsa (pH 7.0) was used for staining. Chromosomal aberrations were analyzed on properly separated metaphases and finally photographed at 100× (Olympus U—PMTV microscope), using oil immersion. The metaphase cells from approximately 1000 cells per concentration per animal both in exposed and control replicates, expressed in percentage were considered for mitotic indices (MI).

[2] = tested on: peripheral blood cells; settings: Mean ± SD, 40 mg/kgbw
Description: as §1
Detection of DNA strand break was performed according to protocol of Singh et al. with some modifications. Briefly, blood was collected using Retro-orbital bleeding during euthanasia. 10μL whole blood cells obtained were mixed with 75 µL of 0.5% LMPA and layered onto frosted slides which was pre-coated with NMA. After putting cover slip, slides were kept for 5–10min. After gelling, removed cover slip gently and added a layer of 90 μL of LMPA. After replacing the cover slip, slides were placed on the slide tray (ice packs) till the agarose layer hardened (5–10 min). Following this, removed the cover slip and by gently immersing the slides in lysis buffer embedded cells were lysed. Cells lysis was performed in cold conditions for a minimum of 2 h in lysing solution.
Alkaline conditions (pH > 13) were used to perform the electrophoresis. After lysis, slides were subjected in electrophoretic buffer at 4 °C for 40 min to achieve the DNA denaturation that allow the DNA unwinding and the expression of alkali labile site. Electrophoresis was then carried out at 0.74 V/cm for 40 min (300 mA; 24 volts) at 4 °C by raising or lowering buffer. Thereafter, neutralization buffer (0.4 M Tris, 10 M HCl; pH = 7.5) were employed to wash the slides. Slides were stained by 80 μL of 1× Ethidium Bromide and excess stain was removed by dipping in chilled distilled water. Slides were examined at 40× magnification under fluorescence microscope coupled with a charge coupled device camera (Olympus).

[3] = tested on: Eosinophils; settings: 72 h treatment
Description: as §1
(§2) WBCs were isolated by following the protocol of Lone et al.. Blood was collected in 0.1% EDTA from retro-orbital plexus of rat, followed by incubation for 30 min. 500 µL of blood was then added to a centrifuge tube with 1 mL FACS lysing solution. The blood was incubated for 10 min and centrifuged (2000 rpm, 10 min) at 25 °C. After discarding the supernatant, pellet was washed in 1mL FACS lysing solution followed by centrifuging at 2000 rpm for 5 min. Repeated this step twice and then pellet was put in 500 µL of PBS, leaving only WBCs.
(§3) Protocol of Majeed and colleagues was employed for flow cytometric measurements of change in Ψm. […] Leukocytes were identified via forward and side scatter.

[4] = tested on: Neutrophils
Description: as §1, §2, §3

[5] = tested on: Platelets; settings: 72 h treatment

O=P1(N(CCCl)CCCl)NCCCO1 (stereo not shown) [Cyclophosphamide, reference compound]
Total Aberrations (Mean ± SD) ([1]; 24 h): 17.50 ± 3.33 ***^,a %
Total Aberrations (Mean ± SD) ([1]; 48 h): 13.66 ± 2.56 ***^,a %
Total Aberrations (Mean ± SD) ([1]; 72 h): 10.66 ± 2.61 ***^,a %
MI (Mean ± SD) ([1]; 24 h): 1.52 ± 0.05 **^,a %
MI (Mean ± SD) ([1]; 48 h): 1.56 ± 0.05 **^,a %
MI (Mean ± SD) ([1]; 72 h): 1.63 ± 0.03 **^,a %
Structural Aberrations Assoc ([1]; 24 h): 9
Structural Aberrations Assoc ([1]; 48 h): 7
Structural Aberrations Assoc ([1]; 72 h): 4
Structural Aberrations Brk ([1]; 24 h): 14
Structural Aberrations Brk ([1]; 48 h): 12
Structural Aberrations Brk ([1]; 72 h): 9
Structural Aberrations Del ([1]; 24 h): 23
Structural Aberrations Del ([1]; 48 h): 18
Structural Aberrations Del ([1]; 72 h): 15
Structural Aberrations Dcn ([1]; 24 h): 25
Structural Aberrations Dcn ([1]; 48 h): 18
Structural Aberrations Dcn ([1]; 72 h): 14
Structural Aberrations Frag ([1]; 24 h): 26
Structural Aberrations Frag ([1]; 48 h): 21
Structural Aberrations Frag ([1]; 72 h): 19
Structural Aberrations Gp ([1]; 24 h): 20
Structural Aberrations Gp ([1]; 48 h): 16
Structural Aberrations Gp ([1]; 72 h): 13
Structural Aberrations Ring ([1]; 24 h): 8
Structural Aberrations Ring ([1]; 48 h): 6
Structural Aberrations Ring ([1]; 72 h): 3
Olive Tail Moment ([2]; 24 h): 12.52 ± 0.81 ***^,a
Tail Length (µm) ([2]; 24 h): 51.01 ± 3.71 ***^,a µm
Olive Tail Moment ([2]; 48 h): 11.28 ± 0.84 ***^,a
Tail Length (µm) ([2]; 48 h): 40.91 ± 2.86 ***^,a µm
Olive Tail Moment ([2]; 72 h): 8.23 ± 0.73 ***^,a
Tail Length (µm) ([2]; 72 h): 38.51 ± 1.05 ***^,a µm
MMP loss (membrane potential loss) [3]: 54%
P9: percentage of reduced mitochondrial membrane potential (MMP loss) ([4]; Figure 7, one experiment, Positive Control): 10.9%
MMP loss (membrane potential loss) ([4]; neutrophils, 72 h treatment): 93.2%
MMP loss (membrane potential loss) [5]: 81.1%

— PMC7712428, “Dimethoate Induces DNA Damage and Mitochondrial Dysfunction Triggering Apoptosis in Rat Bone-Marrow and Peripheral Blood Cells” (Toxics, 2020)
